Data reported in ChEMBL document CHEMBL1201862, “PubChem BioAssay data set” (2004).
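Results reflect a 48-hour exposure of cells in 96-well plates to compound at five concentrations. GI50 = concentration required for 50% inhibition of growth.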 Activity calls are given as the source filed them. No stated cut-off is given here; in the data, active = GI50 up to about 1.1 µM and inactive = higher.

Tests used:
Assay in all cases: NCI-60 cell line screen, 48 h
KM12 = tested on: KM12
786-0 = tested on: 786-0
COLO 205 = tested on: COLO 205
NCI-H23 = tested on: NCI-H23
CCRF-CEM = tested on: CCRF-CEM
SK-MEL-28 = tested on: SK-MEL-28
IGROV-1 = tested on: IGROV-1
MDA-MB-435 = tested on: MDA-MB-435
HOP-92 = tested on: HOP-92
M14 = tested on: M14
SK-MEL-2 = tested on: SK-MEL-2
ACHN = tested on: ACHN
OVCAR-4 = tested on: OVCAR-4
SK-OV-3 = tested on: SK-OV-3
SW-620 = tested on: SW-620
SNB-19 = tested on: SNB-19
HOP-62 = tested on: HOP-62
LOX IMVI = tested on: LOX IMVI
TK-10 = tested on: TK-10
HCC 2998 = tested on: HCC 2998

Measured: GI50

CC1=C(C(N)=O)C(c2ccncc2)C(C#N)=C2SCC(=O)N12 (centres undefined)
inactive: KM12 > 100 µM | 786-0 > 100 µM | COLO 205 > 100 µM | NCI-H23 > 100 µM | CCRF-CEM > 100 µM | SK-MEL-28 > 100 µM | IGROV-1 > 100 µM | MDA-MB-435 > 100 µM | HOP-92 > 100 µM | M14 > 100 µM | SK-MEL-2 > 100 µM | ACHN > 100 µM | OVCAR-4 > 100 µM | SK-OV-3 > 100 µM | SW-620 > 100 µM | SNB-19 > 100 µM | HOP-62 > 100 µM

O=c1cc(N2CCOCC2)oc2c(-c3ccccc3)cccc12 [LY-294002]
inactive: KM12 12.1 µM | 786-0 9.68 µM | LOX IMVI 3.72 µM | COLO 205 13.5 µM | NCI-H23 3.76 µM | CCRF-CEM 39.1 µM | SK-MEL-28 16.9 µM | IGROV-1 2.49 µM | TK-10 23.7 µM | MDA-MB-435 7.8 µM | HOP-92 9.04 µM | M14 11.1 µM | SK-MEL-2 9.93 µM | ACHN 7.45 µM | OVCAR-4 2.7 µM | SK-OV-3 14.2 µM | SW-620 21.7 µM | SNB-19 14.6 µM | HOP-62 4.59 µM

Cc1oc2c(c1C)S(=O)(=O)C(C#N)=C(c1ccccc1)N2
inactive: KM12 > 100 µM | 786-0 > 100 µM | LOX IMVI > 100 µM | COLO 205 > 100 µM | NCI-H23 > 100 µM | SK-MEL-28 > 100 µM | IGROV-1 > 100 µM | TK-10 > 100 µM | MDA-MB-435 > 100 µM | HOP-92 > 100 µM | HCC 2998 > 100 µM | M14 > 100 µM | SK-MEL-2 > 100 µM | ACHN > 100 µM | OVCAR-4 > 100 µM | SK-OV-3 > 100 µM | SW-620 > 100 µM | SNB-19 > 100 µM | HOP-62 > 100 µM

CC1[C@@H](OCc2ccccc2)COC(=O)N1Cc1ccccc1 (some centres undefined)
inactive: KM12 > 100 µM | 786-0 > 100 µM | LOX IMVI > 100 µM | COLO 205 > 100 µM | NCI-H23 52.1 µM | CCRF-CEM > 100 µM | SK-MEL-28 > 100 µM | IGROV-1 > 100 µM | TK-10 > 100 µM | MDA-MB-435 > 100 µM | HOP-92 5.27 µM | M14 > 100 µM | SK-MEL-2 > 100 µM | ACHN > 100 µM | OVCAR-4 78 µM | SK-OV-3 > 100 µM | SW-620 > 100 µM | SNB-19 > 100 µM | HOP-62 > 100 µM

COc1cc2nc(-c3cccs3)nc(Nc3cccc(Cl)c3)c2cc1OC
inactive: KM12 43.2 µM | 786-0 53.2 µM | LOX IMVI 42.6 µM | COLO 205 > 100 µM | NCI-H23 54.6 µM | CCRF-CEM 34 µM | SK-MEL-28 81.8 µM | IGROV-1 61.1 µM | TK-10 2.3 µM | MDA-MB-435 61.9 µM | HOP-92 55 µM | M14 78.3 µM | SK-MEL-2 > 100 µM | ACHN 78.5 µM | OVCAR-4 28.8 µM | SK-OV-3 48.1 µM | SW-620 > 100 µM | SNB-19 35.2 µM | HOP-62 20.3 µM

CSc1ncnc2c1ncn2CCC(=O)O
inactive: KM12 > 100 µM | 786-0 > 100 µM | LOX IMVI > 100 µM | COLO 205 > 100 µM | NCI-H23 > 100 µM | CCRF-CEM > 100 µM | SK-MEL-28 > 100 µM | IGROV-1 > 100 µM | TK-10 > 100 µM | MDA-MB-435 > 100 µM | HOP-92 > 100 µM | M14 > 100 µM | ACHN > 100 µM | OVCAR-4 > 100 µM | SK-OV-3 > 100 µM | SW-620 > 100 µM | SNB-19 > 100 µM | HOP-62 > 100 µM

CC(=O)C(O)N1C(=O)C=CC1=O (centres undefined)
inactive: KM12 18.9 µM | 786-0 2.33 µM | LOX IMVI 4.43 µM | COLO 205 1.56 µM | NCI-H23 15.9 µM | SK-MEL-28 10.4 µM | IGROV-1 21.1 µM | TK-10 2.53 µM | MDA-MB-435 17.7 µM | HOP-92 2.07 µM | HCC 2998 21 µM | M14 4.23 µM | SK-MEL-2 17.5 µM | ACHN 2.61 µM | SK-OV-3 25.2 µM | SW-620 1.71 µM | SNB-19 17.6 µM | HOP-62 19.5 µM
